Values joined by “and” are separate entries in the source; they are usually repeats but may differ in a detail not shown here. Equal entries are not always repeated.
Columns and labels:
[1] = Metabolites in rat plasma; format: in vivo; conditions: rats, MI-219 i.v. 5 mg/kg
Protocol: Plasma was harvested by centrifuging the blood at 13000 rpm for 5 min at 4° C. and stored frozen at −80±10° C. until analysis.
Based on the similarities and difference among their mass spectra, the possible fragmentation pathways of protonated MI-219 and several lead compounds were proposed. Three characteristic product ions were selected to generate 240 ion channels for MRM screening by using Metabolite ID software (Applied Biosystems), including 40 common biotransformation processes. To search all the metabolites, two other scan modes, EMS full scan and precursor scan were also conducted. Only the components detected in the sample and absent in all the control samples were regarded as possible metabolites. To identify the possible metabolites, both the sample and controls were injected on the LC-MS for EPI and MS^3 scans to obtain their MS^2 and MS^3 spectra.

[2] = Microsomal stability study, negative control incubation; format: in vitro ADME
[3] = In vitro microsomal stability, human; format: in vitro ADME; conditions: for Microsomal stability, % remaining: Human microsomes
[4] = Pharmacokinetic studies in rats; format: in vivo, rat; conditions: for Plasma Concentration: male rat
Protocol: Pharmacokinetic studies on MDM2 inhibitors were carried out in rat. For comparison, the MDM2 inhibitor, AT-219, was also studied.

SJSA-1 xenograft tumors = conditions: mice bearing SJSA-1 xenograft, oral 200-300 mg/kg daily or twice a day, 2 weeks; cited from earlier work
[5] = In vitro microsomal stability, dog; format: in vitro ADME; conditions: for Microsomal stability, % remaining: Dog microsomes
[6] = test system: LnCAP human xenograft tumors; conditions: mice bearing LnCAP xenograft, oral 200-300 mg/kg daily or twice a day, 2 weeks; cited from earlier work
[7] = In vitro microsomal stability, rat; format: in vitro ADME; conditions: for Microsomal stability, % remaining: Rat microsomes
[8] = rats, IV 5 mg/kg, animals and MEAN
[9] = rats, IV 5 mg/kg, animals and MEAN, mean
[10] = rats, PO 25 mg/kg, animals and MEAN

Substance: MI-219
- elimination rate from rat plasma (in words) [1]: similar
- Microsomal stability, % remaining ([2]; 0 min): 100.00%
- Microsomal stability, % remaining ([2]; 5 min): 102.63%
- Microsomal stability, % remaining ([2]; 10 min): 105.25%
- Microsomal stability, % remaining ([2]; 15 min): 109.19%
- Microsomal stability, % remaining ([2]; 30 min): 111.07%
- Microsomal stability, % remaining ([2]; 45 min): 104.13%
- Microsomal stability, % remaining ([2]; 60 min): 109.01%
- Microsomal stability, % remaining ([3]; 0 min): 100.00%
- Microsomal stability, % remaining ([3]; 5 min): 78.76%
- Microsomal stability, % remaining ([3]; 10 min): 58.19%
- Microsomal stability, % remaining ([3]; 15 min): 46.46%
- Microsomal stability, % remaining ([3]; 30 min): 26.46%
- Microsomal stability, % remaining ([3]; 45 min): 20.88%
- Microsomal stability, % remaining ([3]; 60 min): 11.86%
- microsomal stability (in words) ([3]; human liver microsomes): metabolized fairly rapidly
- Plasma Concentration ([4]; IV 5 mg/kg, 0.083 hr, animals M1, M2 and Mean): 5873.30 ng/mL and 5229.30 ng/mL
- Plasma Concentration ([4]; IV 5 mg/kg, 0.083 hr, animals M1, M2 and Mean, mean): 5551.30 ng/mL
- Plasma Concentration ([4]; IV 5 mg/kg, 0.5 hr, animals and Mean): 693.45 ng/mL and 548.39 ng/mL
- Plasma Concentration ([4]; IV 5 mg/kg, 0.5 hr, animals and Mean, mean): 620.92 ng/mL
- Plasma Concentration ([4]; IV 5 mg/kg, 1 hr, animals and Mean): 330.71 ng/mL and 344.66 ng/mL
- Plasma Concentration ([4]; IV 5 mg/kg, 1 hr, animals and Mean, mean): 337.68 ng/mL
- Plasma Concentration ([4]; IV 5 mg/kg, 2 hr, animals and Mean): 164.88 ng/mL and 134.91 ng/mL
- Plasma Concentration ([4]; IV 5 mg/kg, 2 hr, animals and Mean, mean): 149.90 ng/mL
- Plasma Concentration ([4]; IV 5 mg/kg, 4 hr, animals and Mean): 49.27 ng/mL and 56.50 ng/mL
- Plasma Concentration ([4]; IV 5 mg/kg, 4 hr, animals and Mean, mean): 52.88 ng/mL
- Plasma Concentration ([4]; IV 5 mg/kg, 6 hr, animals and Mean): 24.18 ng/mL and 32.66 ng/mL
- Plasma Concentration ([4]; IV 5 mg/kg, 6 hr, animals and Mean, mean): 28.42 ng/mL
- Plasma Concentration ([4]; IV 5 mg/kg, 8 hr, animals and Mean): 11.05 ng/mL and 18.98 ng/mL
- Plasma Concentration ([4]; IV 5 mg/kg, 8 hr, animals and Mean, mean): 15.02 ng/mL
- Plasma Concentration ([4]; IV 5 mg/kg, 24 hr, animals and Mean): 1.86 ng/mL and 1.28 ng/mL
- Plasma Concentration ([4]; IV 5 mg/kg, 24 hr, animals and Mean, mean): 1.57 ng/mL
- Plasma Concentration ([4]; PO 25 mg/kg, 0.083 hr, animals M6-M8 and Mean): 1526.57 ng/mL and 1380.03 ng/mL and 1642.42 ng/mL
- Plasma Concentration ([4]; PO 25 mg/kg, 0.083 hr, animals M6-M8 and Mean, mean): 1516.34 ng/mL
- Plasma Concentration ([4]; PO 25 mg/kg, 0.5 hr, animals and Mean): 3332.19 ng/mL and 2500.25 ng/mL and 4278.56 ng/mL
- Plasma Concentration ([4]; PO 25 mg/kg, 0.5 hr, animals and Mean, mean): 3370.33 ng/mL
- Plasma Concentration ([4]; PO 25 mg/kg, 1 hr, animals and Mean): 3101.06 ng/mL and 2957.44 ng/mL and 1779.31 ng/mL
- Plasma Concentration ([4]; PO 25 mg/kg, 1 hr, animals and Mean, mean): 2612.60 ng/mL
- Plasma Concentration ([4]; PO 25 mg/kg, 2 hr, animals and Mean): 1064.21 ng/mL and 1534.41 ng/mL and 1342.18 ng/mL
- Plasma Concentration ([4]; PO 25 mg/kg, 2 hr, animals and Mean, mean): 1313.60 ng/mL
- Plasma Concentration ([4]; PO 25 mg/kg, 4 hr, animals and Mean): 296.644 ng/mL and 223.937 ng/mL and 407.415 ng/mL
- Plasma Concentration ([4]; PO 25 mg/kg, 4 hr, animals and Mean, mean): 309.33 ng/mL
- Plasma Concentration ([4]; PO 25 mg/kg, 6 hr, animals and Mean): 103.285 ng/mL and 90.8093 ng/mL and 131.398 ng/mL
- Plasma Concentration ([4]; PO 25 mg/kg, 6 hr, animals and Mean, mean): 108.50 ng/mL
- Plasma Concentration ([4]; PO 25 mg/kg, 8 hr, animals and Mean): 80.4445 ng/mL and 66.2777 ng/mL
- Plasma Concentration ([4]; PO 25 mg/kg, 8 hr, animals and Mean, mean): 64.76 ng/mL
- Plasma Concentration ([4]; PO 25 mg/kg, 24 hr, animals and Mean): 25.1348 ng/mL and 17.5136 ng/mL and 20.2154 ng/mL
- Plasma Concentration ([4]; PO 25 mg/kg, 24 hr, animals and Mean, mean): 20.95 ng/mL
- % F ([4]; male rats, oral dose 25 mg/kg): 65%
- AUC(0-t) ([4]; male rats, oral dose 25 mg/kg): 7677 ± 328
- Cmax ([4]; male rats, oral dose 25 mg/kg): 3.751 ± 1.068 µg/mL
- T1/2 ([4]; male rats, oral dose 25 mg/kg): 1.4 ± 0.1 h
- oral bioavailability / oral pharmacokinetics in rats (in words) ([4]; oral dosing, rats): orally bioavailable
- AUC(0-t) [4, 8]: 2318.88 µg·h/L and 2379.54 µg·h/L
- AUC(0-∞) [4, 8]: 2.31977 µg·h/mL and 2.37962 µg·h/mL
- CLz [4, 8]: 2.16 L/h/kg and 2.10 L/h/kg
- Cmax [4, 8]: 5.2293 µg/mL and 5.8733 µg/mL
- MRT(0-∞) [4, 8]: 1.51 h and 1.26 h
- T1/2 [4, 8]: 2.54 h and 1.86 h
- Vz [4, 8]: 7.90 L/kg and 5.62 L/kg
- AUC(0-t) [4, 9]: 2349.21 µg·h/L
- AUC(0-∞) [4, 9]: 2.34969 µg·h/mL
- CLz [4, 9]: 2.13 L/h/kg
- Cmax [4, 9]: 5.5513 µg/mL
- MRT(0-∞) [4, 9]: 1.38 h
- T1/2 [4, 9]: 2.20 h
- Vz [4, 9]: 6.76 L/kg
- F ([4]; rats, PO 25 mg/kg vs IV 5 mg/kg, animals and MEAN): 65.45±2.77% and 62.81% and 65.22% and 68.34% and 65.45%
- AUC(0-t) [4, 10]: 7378.78 µg·h/L and 7623.45 µg·h/L and 8028.71 µg·h/L
- AUC(0-∞) [4, 10]: 7.68994 ± 0.32586 µg·h/mL and 7.37881 µg·h/mL and 7.66225 µg·h/mL and 8.02876 µg·h/mL and 7.68994 µg·h/mL
- Cmax [4, 10]: 3.33219 µg/mL and 2.95744 µg/mL and 4.9657 µg/mL and 3.75178 µg/mL
- MRT(0-∞) [4, 10]: 2.64 h and 2.67 h and 2.62 h
- T1/2 [4, 10]: 1.36 h and 1.54 h and 1.40 h and 1.43 h
- AUC(0-t) ([4]; rats, PO 25 mg/kg, animals and MEAN, mean): 7676.98 µg·h/L
- tumor growth inhibition (in words) (SJSA-1 xenograft tumors): effective tumor growth inhibition
- Microsomal stability, % remaining ([5]; 0 min): 100.00%
- Microsomal stability, % remaining ([5]; 5 min): 83.38%
- Microsomal stability, % remaining ([5]; 10 min): 71.22%
- Microsomal stability, % remaining ([5]; 15 min): 71.51%
- Microsomal stability, % remaining ([5]; 30 min): 54.96%
- Microsomal stability, % remaining ([5]; 45 min): 33.81%
- Microsomal stability, % remaining ([5]; 60 min): 32.52%
- microsomal stability (in words) ([5]; dog microsomes): metabolized fairly rapidly
- tumor growth inhibition (in words) [6]: effective tumor growth inhibition
- Microsomal stability, % remaining ([7]; 0 min): 100.00%
- Microsomal stability, % remaining ([7]; 5 min): 58.19%
- Microsomal stability, % remaining ([7]; 10 min): 40.59%
- Microsomal stability, % remaining ([7]; 15 min): 28.11%
- Microsomal stability, % remaining ([7]; 30 min): 18.61%
- Microsomal stability, % remaining ([7]; 45 min): 18.42%
- Microsomal stability, % remaining ([7]; 60 min): 18.38%
- % of compound remaining when incubated in rat liver microsomes ([7]; Table 16, 0 min): 100%
- % of compound remaining when incubated in rat liver microsomes ([7]; Table 16, 4 min): 76.6%
- % of compound remaining when incubated in rat liver microsomes ([7]; Table 16, 6 min): 64.3%
- % of compound remaining when incubated in rat liver microsomes ([7]; Table 16, 10 min): 57.3%
- % of compound remaining when incubated in rat liver microsomes ([7]; Table 16, 15 min): 51.9%
- % of compound remaining when incubated in rat liver microsomes ([7]; Table 16, 30 min): 49.3%
- % of compound remaining when incubated in rat liver microsomes ([7]; Table 17, 0 min): 100%
- % of compound remaining when incubated in rat liver microsomes ([7]; Table 17, 4 min): 76.6%
- % of compound remaining when incubated in rat liver microsomes ([7]; Table 17, 6 min): 64.3%
- % of compound remaining when incubated in rat liver microsomes ([7]; Table 17, 10 min): 57.3%
- % of compound remaining when incubated in rat liver microsomes ([7]; Table 17, 15 min): 51.9%
- % of compound remaining when incubated in rat liver microsomes ([7]; Table 17, 30 min): 49.3%
- microsomal stability (in words) ([7]; rat liver microsomes): metabolized fairly rapidly

— patent US9079913B2, “Spiro-oxindole MDM2 antagonists” (The Regents of the University of Michigan, priority 2009, dated 2015)
